Tested on: PC-3 PIP/flu tumor-bearing mice
Experiment: Biodistribution studies in PC-3 PIP/flu tumor-bearing mice
Conditions: for Tumor-to-blood / Tumor-to-kidney / Tumor-to-liver: PC-3 PIP tumor

**Q.** How did the Tumor-to-blood (1 h p.i.) turn out when `O=C(O)CCC(NC(=O)NC(CCCCNC(=O)C(Cc1ccc2ccccc2c1)NC(=O)C1CCC(CNC(=O)C(CCCCNC(=O)CCCc2ccc(I)cc2)NC(=O)CN2CCN(CC(=O)O)CCN(CC(=O)O)CCN(CC(=O)O)CC2)CC1)C(=O)O)C(=O)O` (stereo not shown) [^177Lu-PSMA-ALB-03, metal not drawn] was run?
**A.** 0.31 ± 0.04

**Q.** What about the Tumor-to-kidney (1 h p.i.) of the same molecule?
**A.** 0.48 ± 0.07

**Q.** What about the Tumor-to-liver (1 h p.i.) of the same molecule?
**A.** 1.64 ± 0.61

**Q.** And the Blood (4 h p.i.)?
**A.** 24.3 ± 3.60 % IA/g

**Q.** And the Bone (4 h p.i.)?
**A.** 2.47 ± 0.39 % IA/g

**Q.** What about the Heart (4 h p.i.) of the same molecule?
**A.** 8.54 ± 1.18 % IA/g

**Q.** What about the Intestines (4 h p.i.) of the same molecule?
**A.** 3.71 ± 1.09 % IA/g

**Q.** What about the Kidneys (4 h p.i.) of the same molecule?
**A.** 24.5 ± 4.38 % IA/g

**Q.** And the Liver (4 h p.i.)?
**A.** 4.56 ± 1.18 % IA/g

**Q.** What about the Lung (4 h p.i.) of the same molecule?
**A.** 14.21 ± 3.49 % IA/g

**Q.** What about the Muscle (4 h p.i.) of the same molecule?
**A.** 2.04 ± 0.37 % IA/g

**Q.** What about the “PC-3 PIP Tumor” value (4 h p.i.) of the same molecule?
**A.** 19.9 ± 0.79 % IA/g

**Q.** And the “PC-3 flu Tumor” value (4 h p.i.)?
**A.** 5.32 ± 1.06 % IA/g

**Q.** And the Salivary glands (4 h p.i.)?
**A.** 5.02 ± 1.17 % IA/g

**Q.** And the Spleen (4 h p.i.)?
**A.** 4.76 ± 1.12 % IA/g

**Q.** What about the Stomach (4 h p.i.) of the same molecule?
**A.** 2.86 ± 1.03 % IA/g

**Q.** What about the Tumor-to-blood (4 h p.i.) of the same molecule?
**A.** 0.83 ± 0.10

**Q.** What about the Tumor-to-kidney (4 h p.i.) of the same molecule?
**A.** 0.83 ± 0.14

**Q.** And the Tumor-to-liver (4 h p.i.)?
**A.** 4.60 ± 1.34

**Q.** And the Blood (8 h p.i.)?
**A.** 23.5 ± 0.74 % IA/g

**Q.** What about the Bone (8 h p.i.) of the same molecule?
**A.** 2.71 ± 0.21 % IA/g

**Q.** And the Heart (8 h p.i.)?
**A.** 8.12 ± 0.46 % IA/g

**Q.** And the Intestines (8 h p.i.)?
**A.** 3.70 ± 0.40 % IA/g

**Q.** And the Kidneys (8 h p.i.)?
**A.** 28.8 ± 1.49 % IA/g

**Q.** And the Liver (8 h p.i.)?
**A.** 4.87 ± 0.42 % IA/g

**Q.** What about the Lung (8 h p.i.) of the same molecule?
**A.** 12.21 ± 1.32 % IA/g

**Q.** What about the Muscle (8 h p.i.) of the same molecule?
**A.** 2.01 ± 0.10 % IA/g

**Q.** What about the “PC-3 PIP Tumor” value (8 h p.i.) of the same molecule?
**A.** 31.0 ± 5.79 % IA/g

**Q.** And the “PC-3 flu Tumor” value (8 h p.i.)?
**A.** 5.98 ± 0.91 % IA/g

**Q.** And the Salivary glands (8 h p.i.)?
**A.** 5.49 ± 0.59 % IA/g

**Q.** And the Spleen (8 h p.i.)?
**A.** 4.10 ± 0.14 % IA/g

**Q.** And the Stomach (8 h p.i.)?
**A.** 2.92 ± 0.17 % IA/g

**Q.** What about the Tumor-to-blood (8 h p.i.) of the same molecule?
**A.** 1.32 ± 0.29

**Q.** What about the Tumor-to-kidney (8 h p.i.) of the same molecule?
**A.** 1.07 ± 0.18

**Q.** What about the Tumor-to-liver (8 h p.i.) of the same molecule?
**A.** 6.38 ± 1.28

**Q.** What about the Blood (24 h p.i.) of the same molecule?
**A.** 17.3 ± 1.38 % IA/g

**Q.** And the Bone (24 h p.i.)?
**A.** 2.02 ± 0.31 % IA/g

**Q.** What about the Heart (24 h p.i.) of the same molecule?
**A.** 6.60 ± 1.01 % IA/g

**Q.** What about the Intestines (24 h p.i.) of the same molecule?
**A.** 2.19 ± 0.23 % IA/g

**Q.** And the Kidneys (24 h p.i.)?
**A.** 24.7 ± 1.85 % IA/g

**Q.** And the Liver (24 h p.i.)?
**A.** 3.35 ± 0.26 % IA/g

**Q.** What about the Lung (24 h p.i.) of the same molecule?
**A.** 9.86 ± 0.57 % IA/g

**Q.** And the Muscle (24 h p.i.)?
**A.** 1.61 ± 0.18 % IA/g

**Q.** And the “PC-3 PIP Tumor” value (24 h p.i.)?
**A.** 53.8 ± 5.61 % IA/g

**Q.** And the “PC-3 flu Tumor” value (24 h p.i.)?
**A.** 5.47 ± 0.67 % IA/g

**Q.** What about the Salivary glands (24 h p.i.) of the same molecule?
**A.** 4.69 ± 0.33 % IA/g

**Q.** What about the Spleen (24 h p.i.) of the same molecule?
**A.** 3.75 ± 0.21 % IA/g

**Q.** What about the Stomach (24 h p.i.) of the same molecule?
**A.** 1.39 ± 0.27 % IA/g

**Q.** And the Tumor-to-blood (24 h p.i.)?
**A.** 3.13 ± 0.35

**Q.** And the Tumor-to-kidney (24 h p.i.)?
**A.** 2.17 ± 0.06

**Q.** What about the Tumor-to-liver (24 h p.i.) of the same molecule?
**A.** 16.1 ± 1.75

**Q.** What about the Blood (48 h p.i.) of the same molecule?
**A.** 12.5 ± 3.78 % IA/g

**Q.** What about the Bone (48 h p.i.) of the same molecule?
**A.** 1.63 ± 0.56 % IA/g

**Q.** And the Heart (48 h p.i.)?
**A.** 4.40 ± 1.18 % IA/g

**Q.** What about the Intestines (48 h p.i.) of the same molecule?
**A.** 1.73 ± 0.50 % IA/g

**Q.** What about the Kidneys (48 h p.i.) of the same molecule?
**A.** 22.6 ± 2.69 % IA/g

**Q.** What about the Liver (48 h p.i.) of the same molecule?
**A.** 2.53 ± 0.77 % IA/g

**Q.** What about the Lung (48 h p.i.) of the same molecule?
**A.** 7.45 ± 2.06 % IA/g

**Q.** What about the Muscle (48 h p.i.) of the same molecule?
**A.** 1.32 ± 0.41 % IA/g

**Q.** And the “PC-3 PIP Tumor” value (48 h p.i.)?
**A.** 72.3 ± 24.7 % IA/g

**Q.** And the “PC-3 flu Tumor” value (48 h p.i.)?
**A.** 5.69 ± 3.65 % IA/g

**Q.** What about the Salivary glands (48 h p.i.) of the same molecule?
**A.** 3.45 ± 1.09 % IA/g

**Q.** And the Spleen (48 h p.i.)?
**A.** 3.79 ± 0.89 % IA/g

**Q.** And the Stomach (48 h p.i.)?
**A.** 1.49 ± 0.48 % IA/g

**Q.** What about the Tumor-to-blood (48 h p.i.) of the same molecule?
**A.** 5.94 ± 1.53

**Q.** And the Tumor-to-kidney (48 h p.i.)?
**A.** 3.17 ± 0.84

**Q.** And the Tumor-to-liver (48 h p.i.)?
**A.** 29.0 ± 5.26

**Q.** What about the Blood (96 h p.i.) of the same molecule?
**A.** 7.37 ± 0.64 % IA/g

**Q.** And the Bone (96 h p.i.)?
**A.** 1.07 ± 0.27 % IA/g

**Q.** And the Heart (96 h p.i.)?
**A.** 3.15 ± 0.28 % IA/g

**Q.** What about the Intestines (96 h p.i.) of the same molecule?
**A.** 1.21 ± 0.26 % IA/g

**Q.** And the Kidneys (96 h p.i.)?
**A.** 16.1 ± 1.69 % IA/g

**Q.** What about the Liver (96 h p.i.) of the same molecule?
**A.** 1.78 ± 0.03 % IA/g

**Q.** And the Lung (96 h p.i.)?
**A.** 5.56 ± 0.54 % IA/g

**Q.** And the Muscle (96 h p.i.)?
**A.** 0.91 ± 0.15 % IA/g

**Q.** And the “PC-3 PIP Tumor” value (96 h p.i.)?
**A.** 75.7 ± 2.46 % IA/g

**Q.** And the “PC-3 flu Tumor” value (96 h p.i.)?
**A.** 3.52 ± 0.54 % IA/g

**Q.** What about the Salivary glands (96 h p.i.) of the same molecule?
**A.** 2.19 ± 0.1 % IA/g

**Q.** And the Spleen (96 h p.i.)?
**A.** 3.23 ± 0.53 % IA/g

**Q.** And the Stomach (96 h p.i.)?
**A.** 0.91 ± .010 % IA/g

**Q.** And the Tumor-to-blood (96 h p.i.)?
**A.** 10.3 ± 0.57

**Q.** What about the Tumor-to-kidney (96 h p.i.) of the same molecule?
**A.** 4.7 ± 0.38

**Q.** What about the Tumor-to-liver (96 h p.i.) of the same molecule?
**A.** 42.6 ± 1.90

**Q.** And the Blood (144 h p.i.)?
**A.** 6.02 ± 0.60 % IA/g

**Q.** What about the Bone (144 h p.i.) of the same molecule?
**A.** 1.14 ± 0.23 % IA/g

**Q.** What about the Heart (144 h p.i.) of the same molecule?
**A.** 2.55 ± 0.25 % IA/g

**Q.** What about the Intestines (144 h p.i.) of the same molecule?
**A.** 0.88 ± 0.18 % IA/g

**Q.** And the Kidneys (144 h p.i.)?
**A.** 11.2 ± 3.82 % IA/g

**Q.** And the Liver (144 h p.i.)?
**A.** 1.50 ± 0.14 % IA/g

**Q.** What about the Lung (144 h p.i.) of the same molecule?
**A.** 4.99 ± 1.00 % IA/g

**Q.** What about the Muscle (144 h p.i.) of the same molecule?
**A.** 0.54 ± 0.07 % IA/g

**Q.** What about the “PC-3 PIP Tumor” value (144 h p.i.) of the same molecule?
**A.** 68.9 ± 8.80 % IA/g

**Q.** What about the “PC-3 flu Tumor” value (144 h p.i.) of the same molecule?
**A.** 2.77 ± 0.41 % IA/g

**Q.** And the Salivary glands (144 h p.i.)?
**A.** 1.67 ± 0.27 % IA/g

**Q.** And the Spleen (144 h p.i.)?
**A.** 2.94 ± 0.39 % IA/g

**Q.** And the Stomach (144 h p.i.)?
**A.** 0.73 ± 0.10 % IA/g

**Q.** And the Tumor-to-blood (144 h p.i.)?
**A.** 11.4 ± 0.47

**Q.** And the Tumor-to-kidney (144 h p.i.)?
**A.** 6.44 ± 1.27

**Q.** What about the Tumor-to-liver (144 h p.i.) of the same molecule?
**A.** 46.0 ± 2.53

**Q.** What about the Blood (192 h p.i.) of the same molecule?
**A.** 5.29 ± 0.18 % IA/g

**Q.** What about the Bone (192 h p.i.) of the same molecule?
**A.** 0.83 ± 0.22 % IA/g

**Q.** And the Heart (192 h p.i.)?
**A.** 2.08 ± 0.14 % IA/g

**Q.** What about the Intestines (192 h p.i.) of the same molecule?
**A.** 0.96 ± 0.03 % IA/g

**Q.** What about the Kidneys (192 h p.i.) of the same molecule?
**A.** 7.35 ± 0.92 % IA/g

**Q.** What about the Liver (192 h p.i.) of the same molecule?
**A.** 1.25 ± 0.20 % IA/g

**Q.** What about the Lung (192 h p.i.) of the same molecule?
**A.** 4.17 ± 0.68 % IA/g

**Q.** And the Muscle (192 h p.i.)?
**A.** 0.62 ± 0.04 % IA/g

**Q.** And the “PC-3 PIP Tumor” value (192 h p.i.)?
**A.** 58.9 ± 12.4 % IA/g

**Q.** What about the “PC-3 flu Tumor” value (192 h p.i.) of the same molecule?
**A.** 2.42 ± 0.23 % IA/g

**Q.** What about the Salivary glands (192 h p.i.) of the same molecule?
**A.** 1.55 ± 0.06 % IA/g

**Q.** And the Spleen (192 h p.i.)?
**A.** 3.13 ± 0.90 % IA/g

**Q.** And the Stomach (192 h p.i.)?
**A.** 0.78 ± 0.07 % IA/g

**Q.** What about the Tumor-to-blood (192 h p.i.) of the same molecule?
**A.** 11.1 ± 1.97

**Q.** And the Tumor-to-kidney (192 h p.i.)?
**A.** 7.97 ± 0.70

**Q.** And the Tumor-to-liver (192 h p.i.)?
**A.** 47.1 ± 2.44

Source: US11629201B2, “PSMA-binding agents and uses thereof” (ITM Isotope Technologies Munich SE, priority 2017, dated 2023)
